# Reference: patent publication US10745432B2, “Crystal of 6′-sialyllactose sodium salt, and process for producing same” (KYOWA HAKKO BIO CO., LTD., priority 2015, dated 2020)
# Legend:
# Format in all cases: physicochemical
# [1] = Degree of coloration (transmittance at 430 nm) when a heat load at 60° C. was applied; conditions: for degree of coloration, transmittance T % 430 nm: solution at 100 g/L in terms of anhydrate, 1 cm
# Experimental: Further, with respect to the crystal of 6SL sodium salt 4.6-hydrate and known amorphous 6SL sodium salt, the degree of coloration when a heat load at 60° C. was applied was compared, and the results are shown in Table 4.
# The degree of coloration is expressed by transmittance T % 430 nm 100×10^−A (A=Abs: 430 nm, 1 cm), which was obtained by dissolving each substance at 100 g/L in terms of an anhydrate and performing measurement for the solution.
# [2] = Hygroscopicity: weight change on storage at 30° C., relative humidity 80%
# Experimental: The hygroscopicity of the obtained crystal of 6SL sodium salt 4.6-hydrate and that of a 6SL sodium reagent (amorphous salt, manufactured by Carbosynth Limited) were compared under the following conditions.
# Storage condition: 30° C., relative humidity: 80% (apparatus: THE051FA, manufactured by Advantec Toyo Kaisha Ltd.).
# Measurement method: After about 100 mg of a sample was weighed with a precision balance, the sample was packed in a glass container and stored under the above-mentioned conditions. Thereafter, the sample was weighed again, and the weight change ratio was calculated.
# Incidentally, the weight of the sample at each elapsed time was measured by assuming the weight of each sample at the start of the test to be 100%.
# [3] = pH of aqueous solution of the crystal; conditions: aqueous solution at 100 g/L in terms of crystal of 6SL sodium salt 4.6-hydrate
# Experimental: As for the pH, an aqueous solution at 100 g/L in terms of crystal of 6SL sodium salt 4.6-hydrate was measured.
SMILES,"degree of coloration, transmittance T % 430 nm ([1]; elapsed time 0 days, sodium salt) [%]","degree of coloration, transmittance T % 430 nm ([1]; elapsed time 3 days, sodium salt) [%]","degree of coloration, transmittance T % 430 nm ([1]; elapsed time 6 days, sodium salt) [%]","weight of sample (weight at start of test = 100%) ([2]; elapsed time 0.5 hours, sodium salt) [%]","weight of sample (weight at start of test = 100%) ([2]; elapsed time 2.5 hours, sodium salt) [%]","weight of sample (weight at start of test = 100%) ([2]; elapsed time 8 hours, sodium salt) [%]","weight of sample (weight at start of test = 100%) ([2]; elapsed time 20 hours, sodium salt) [%]",degree of coloration during storage (in words) ([1]; compared with known amorphous 6SL sodium salt),"degree of coloration, transmittance T % 430 nm ([1]; elapsed time 0 days) [%]","degree of coloration, transmittance T % 430 nm ([1]; elapsed time 3 days) [%]","degree of coloration, transmittance T % 430 nm ([1]; elapsed time 6 days) [%]",hygroscopicity (in words) ([2]; compared with amorphous salt),"weight of sample (weight at start of test = 100%) ([2]; elapsed time 0 hours (start, assumed 100%)) [%]",weight of sample (weight at start of test = 100%) ([2]; elapsed time 0.5 hours) [%],weight of sample (weight at start of test = 100%) ([2]; elapsed time 2.5 hours) [%],weight of sample (weight at start of test = 100%) ([2]; elapsed time 8 hours) [%],weight of sample (weight at start of test = 100%) ([2]; elapsed time 20 hours) [%],pH [3]
"CC(=O)NC1C(O)CC(OCC2OC(OC3C(CO)OC(O)C(O)C3O)C(O)C(O)C2O)(C(=O)[O-])OC1C(O)C(O)CO.[Na+] (stereo not drawn) [Amorphous salt, 6SL sodium salt, reference compound]",99.4,99.0,98.8,114.4,119.6,122.9,124.1,–,–,–,–,–,–,–,–,–,–,–
"CC(=O)NC1C(O)CC(OCC2OC(OC3C(CO)OC(O)C(O)C3O)C(O)C(O)C2O)(C(=O)[O-])OC1C(O)C(O)CO.[Na+] (stereo not drawn) [Crystal of sodium salt, 6SL sodium salt 4.6-hydrate]",–,–,–,–,–,–,–,lower than that of known amorphous 6SL sodium salt,99.9,99.8,99.8,lower hygroscopicity than the amorphous salt,100.0,98.8,98.6,98.4,98.7,6.23
